Laboratory results as given in patent US9499550B2 (BRISTOL-MYERS SQUIBB COMPANY, priority 2012, dated 2016).
Where two headings read alike, the source gives them in different places.

Tests used:
[1] = system: HCV genotype 1b (Con1) replicon in HUH-7 cells; assay: HCV replicon luciferase reporter assay, genotype 1b; format: cell-based; conditions: Hepatitis C virus, Huh-7, 72 h, 3 days incubation
In short: (§1)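 Replicon inhibition for both genotypes was measured as Renilla luciferase signal (EnduRen, 7.5 μM final, 2 h) after 3-day, 37° C exposure of replicon-bearing HUH-7 cells in 4% FCS DMEM, 0.5% DMSO. The 1b construct carries S1179I; the 1a H77 construct carries P1496L and S2204I. Twenty-point, 3-fold dilutions were fitted four-parametrically for EC50, and CC50 was taken from multiplexed Cell Titer-Blue.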

[2] = system: HCV genotype 1a (H77 strain) replicon in HUH-7 cells; assay: HCV replicon luciferase reporter assay, genotype 1a; format: cell-based; conditions: Hepatitis C virus, Huh-7, 72 h, 3 days incubation
In short: as §1

[3] = HCV genotype 1b replicon luciferase, read-out: LE_1b (EC50, range)
[4] = HCV genotype 1a replicon luciferase, read-out: LE_1a (EC50, range)
[5] = GETYPE1B, HCV genotype 1b replicon luciferase, read-out: LE_1b (EC50, range)
[6] = GETYPE1A, HCV genotype 1a replicon luciferase, read-out: LE_1a (EC50, range)
[7] = HCV genotype 1b replicon luciferase, read-out: LE_1b (EC50)
[8] = HCV genotype 1a replicon luciferase, read-out: LE_1a (EC50)

SMILES	EC50 [1, 3]	EC50 [2, 4]	further results
CCCOc1ccc2c(O[C@@H]3C[C@H]4C(=O)N[C@]5(C(=O)NS(=O)(=O)C6CC6)C[C@H]5/C=C\CC[C@H](C)C[C@@H](C)[C@H](NC(=O)OC(C)(C)C(F)(F)F)C(=O)N4C3)nccc2c1 [Compound 5170, 1,1,1-trifluoro-2-methylpropan-2-yl((2R,6S,7R,9S,13aS,14aR,16aS,Z)-14a-((cyclopropylsulfonyl)carbamoyl)-7,9-dimethyl-5,16-dioxo-2-((6-propoxyisoquinolin-1-yl)oxy)-1,2,3,5,6,7,8,9,10,11,13a,14,14a,15,16,16a-hexadecahydrocyclopropa[e]pyrrolo[1,2-a][1,4]diazacyclopentadecin-6-yl)carbamate]	< 5.46 nM	4.82 to 103 nM	–
CCOc1ccc2c(O[C@@H]3C[C@H]4C(=O)N[C@]5(C(=O)NS(=O)(=O)C6(CF)CC6)C[C@H]5/C=C\CC[C@@H](C)C[C@@H](C)[C@H](NC(=O)OC(C)(C)C(C)(F)F)C(=O)N4C3)nccc2c1 [Compound 5365, 3,3-difluoro-2-methylbutan-2-yl((2R,6S,7R,9R,13aS,14aR,16aS,Z)-2-((6-ethoxyisoquinolin-1-yl)oxy)-14a-(((1-(fluoromethyl)cyclopropyl)sulfonyl)carbamoyl)-7,9-dimethyl-5,16-dioxo-1,2,3,5,6,7,8,9,10,11,13a,14,14a,15,16,16a-hexadecahydrocyclopropa[e]pyrrolo[1,2-a][1,4]diazacyclopentadecin-6-yl)carbamate]	0.51 to 1 nM	1.01 to 5 nM	–
CC[C@@H]1C[C@H](C)CC/C=C\[C@@H]2C[C@@]2(C(=O)NS(=O)(=O)C2(C)CC2)NC(=O)[C@@H]2C[C@@H](Oc3cc(Cl)c4ccc(OC)cc4n3)CN2C(=O)[C@H]1NC(=O)OC(C)(C)C(F)(F)F [Compound 4298]	–	–	EC50 [1, 5]: 1.01 to 5 nM; EC50 [2, 6]: 1.01 to 5 nM
CCOc1nnc(O[C@@H]2C[C@H]3C(=O)N[C@]4(C(=O)NS(=O)(=O)C5(C)CC5)C[C@H]4/C=C\CC[C@@H](C)C[C@@H](CC)[C@H](NC(=O)OC(C)(C)C)C(=O)N3C2)c2ccccc12 [Compound 5047, tert-butyl ((2R,6S,7R,9R,13aS,14aR,16aS,Z)-2-((4-ethoxyphthalazin-1-yl)oxy)-7-ethyl-9-methyl-14a-(((1-methylcyclopropyl)sulfonyl)carbamoyl)-5,16-dioxo-1,2,3,5,6,7,8,9,10,11,13a,14,14a,15,16,16a-hexadecahydrocyclopropa[e]pyrrolo[1,2-a][1,4]diazacyclopentadecin-6-yl)carbamate]	< 5.46 nM	< 5.46 nM	–
CC[C@@H]1C[C@@H](C)CC/C=C\[C@@H]2C[C@@]2(C(=O)NS(=O)(=O)C2(C)CC2)NC(=O)[C@@H]2C[C@@H](Oc3nc4c(c5ccccc35)OCCC4)CN2C(=O)[C@H]1NC(=O)OC(C)(C)C [Compound 6023, tert-butyl ((2R,6S,7R,9S,13aS,14aR,16aS,Z)-2-((3,4-dihydro-2H-pyrano[3,2-c]isoquinolin-6-yl)oxy)-7-ethyl-9-methyl-14a-(((1-methylcyclopropyl)sulfonyl)carbamoyl)-5,16-dioxo-1,2,3,5,6,7,8,9,10,11,13a,14,14a,15,16,16a-hexadecahydrocyclopropa[e]pyrrolo[1,2-a][1,4]diazacyclopentadecin-6-yl)carbamate]	4.82 to 103 nM	4.82 to 103 nM	–
CC[C@@H]1C[C@H](C)CC/C=C\[C@@H]2C[C@@]2(C(=O)NS(=O)(=O)C2(C)CC2)NC(=O)[C@@H]2C[C@@H](Oc3nccc4c5c(ccc34)CCCO5)CN2C(=O)[C@H]1NC(=O)OC(C)(C)C(F)(F)F [Compound 6062, 1,1,1-trifluoro-2-methylpropan-2-yl((2R,6S,7R,9R,13aS,14aR,16aS,Z)-2-((3,4-dihydro-2H-pyrano[2,3-f]isoquinolin-7-yl)oxy)-7-ethyl-9-methyl-14a-(((1-methylcyclopropyl)sulfonyl)carbamoyl)-5,16-dioxo-1,2,3,5,6,7,8,9,10,11,13a,14,14a,15,16,16a-hexadecahydrocyclopropa[e]pyrrolo[1,2-a][1,4]diazacyclopentadecin-6-yl)carbamate]	0.51 to 1 nM	1.01 to 5 nM	–
COc1cc2c(OC)cnc(O[C@@H]3C[C@H]4C(=O)N[C@]5(C(=O)NS(=O)(=O)C6(CO)CC6)C[C@H]5/C=C\CC[C@@H](C)C[C@@H](C)[C@H](NC(=O)OC(C)(C)C)C(=O)N4C3)c2cc1F [Compound 4122, tert-butyl (2R,6S,7R,9R,13aS,14aR,16aS,Z)-2-(7-fluoro-4,6-dimethoxyisoquinolin-1-yloxy)-14a-(1-(hydroxymethyl)cyclopropylsulfonylcarbamoyl)-7,9-dimethyl-5,16-dioxo-1,2,3,5,6,7,8,9,10,11,13a,14,14a,15,16,16a-hexadecahydrocyclopropa[e]pyrrolo[1,2-a][1,4]diazacyclopentadecin-6-ylcarbamate]	< 5.46 nM	< 5.46 nM	–
C[C@@H]1CC/C=C\[C@@H]2C[C@@]2(C(=O)NS(=O)(=O)C2(C)CC2)NC(=O)[C@@H]2C[C@@H](Oc3nccc4c5c(ccc34)N(C)CCO5)CN2C(=O)[C@@H](NC(=O)C(=O)N(C)C)[C@H](C)C1 [Compound 5306, N1-((2R,6S,7R,9R,13aS,14aR,16aS,Z)-7,9-dimethyl-2-((4-methyl-3,4-dihydro-2H-[1,4]oxazino[2,3-f]isoquinolin-7-yl)oxy)-14a-(((1-methylcyclopropyl)sulfonyl)carbamoyl)-5,16-dioxo-1,2,3,5,6,7,8,9,10,11,13a,14,14a,15,16,16a-hexadecahydrocyclopropa[e]pyrrolo[1,2-a][1,4]diazacyclopentadecin-6-yl)-N2,N2-dimethyloxalamide]	< 5.46 nM	< 5.46 nM	EC50 [1, 7]: 2.45 nM; EC50 [2, 8]: 2.97 nM
COc1ccc2c(O[C@@H]3C[C@H]4C(=O)N[C@]5(C(=O)NS(=O)(=O)C6(CF)CC6)C[C@H]5/C=C\CC[C@@H](C)C[C@@H](C)[C@H](NC(=O)OC(C)(C)C(F)F)C(=O)N4C3)nc3c(c2c1)CCCO3 [Compound 6078, 1,1-difluoro-2-methylpropan-2-yl((2R,6S,7R,9R,13aS,14aR,16aS,Z)-14a-(((1-(fluoromethyl)cyclopropyl)sulfonyl)carbamoyl)-2-((9-methoxy-2,3-dihydro-1H-pyrano[2,3-c]isoquinolin-6-yl)oxy)-7,9-dimethyl-5,16-dioxo-1,2,3,5,6,7,8,9,10,11,13a,14,14a,15,16,16a-hexadecahydrocyclopropa[e]pyrrolo[1,2-a][1,4]diazacyclopentadecin-6-yl)carbamate]	1.01 to 5 nM	1.01 to 5 nM	–
COc1ccc2c(O[C@@H]3C[C@H]4C(=O)N[C@]5(C(=O)NS(=O)(=O)C6CC6)C[C@H]5/C=C\CC[C@H](C)C[C@@H](C)[C@H](NC(=O)OC(C)(C)C)C(=O)N4C3)nc(-c3ccc(OC(C)C)nc3)cc2c1 [Compound 5212, tert-butyl ((2R,6S,7R,9S,13aS,14aR,16aS,Z)-14a-((cyclopropylsulfonyl)carbamoyl)-2-((3-(6-isopropoxypyridin-3-yl)-6-methoxyisoquinolin-1-yl)oxy)-7,9-dimethyl-5,16-dioxo-1,2,3,5,6,7,8,9,10,11,13a,14,14a,15,16,16a-hexadecahydrocyclopropa[e]pyrrolo[1,2-a][1,4]diazacyclopentadecin-6-yl)carbamate]	< 5.46 nM	< 5.46 nM	–
COc1cnc(O[C@@H]2C[C@H]3C(=O)N[C@]4(C(=O)NS(=O)(=O)C5CCC5)C[C@H]4/C=C\CC[C@@H](C)C[C@@H](C)[C@H](NC(=O)OC(C)(C)C)C(=O)N3C2)c2ccccc12 [Compound 5352]	< 5.46 nM	< 5.46 nM	–
CCn1nc(O[C@@H]2C[C@H]3C(=O)N[C@]4(C(=O)NS(=O)(=O)C5CC5)C[C@H]4/C=C\CC[C@H](C)C[C@@H](C)[C@H](NC(=O)NC(C)(C)C)C(=O)N3C2)c2ccccc2c1=O [Compound 5071, (2R,6S,7R,9S,13aS,14aR,16aS,Z)-6-(3-(tert-butyl)ureido)-N-(cyclopropylsulfonyl)-2-((3-ethyl-4-oxo-3,4-dihydrophthalazin-1-yl)oxy)-7,9-dimethyl-5,16-dioxo-1,2,3,5,6,7,8,9,10,11,13a,14,14a,15,16,16a-hexadecahydrocyclopropa[e]pyrrolo[1,2-a][1,4]diazacyclopentadecine-14a-carboxamide]	> 87.4 nM	> 87.4 nM	EC50 [1, 7]: 1000 nM; EC50 [2, 8]: ≥ 1000 nM
CC[C@@H]1C[C@H](C)CC/C=C\[C@@H]2C[C@@]2(C(=O)NS(=O)(=O)C2(CF)CC2)NC(=O)[C@@H]2C[C@@H](Oc3nc(OC)cc4cc(OC)ccc34)CN2C(=O)[C@H]1NC(=O)OC(C)(C)C(F)(F)F [Compound 1193]	–	–	EC50 [1, 5]: 0.51 to 1 nM; EC50 [2, 6]: 1.01 to 5 nM
COc1cc(F)cc2c(O[C@@H]3C[C@H]4C(=O)N[C@]5(C(=O)NS(=O)(=O)C6(CF)CC6)C[C@H]5/C=C\CC[C@H](C)C[C@@H](C)[C@H](NC(=O)OC(C)(C)C)C(=O)N4C3)nccc12 [Compound 3173, tert-butyl ((2R,6S,7R,9S,13aS,14aR,16aS,Z)-2-((7-fluoro-5-methoxyisoquinolin-1-yl)oxy)-14a-(((1-(fluoromethyl)cyclopropyl)sulfonyl)carbamoyl)-7,9-dimethyl-5,16-dioxo-1,2,3,5,6,7,8,9,10,11,13a,14,14a,15,16,16a-hexadecahydrocyclopropa[e]pyrrolo[1,2-a][1,4]diazacyclopentadecin-6-yl)carbamate]	–	–	EC50 ([1]; HCV genotype 1b replicon luciferase assay, range class, read-out: LE_1b (EC50, range)): 4.82 to 103 nM; EC50 ([2]; HCV genotype 1a replicon luciferase assay, range class, read-out: LE_1a (EC50, range)): 4.82 to 103 nM
